In data set [1] the target is T1, RXRα (Homo sapiens, UniProt P19793, R316E).
T1 construct: gene RXRA; Gal4-DBD-RXRα-LBD
T1 sequence (P19793 223-462 R316E limits assumed): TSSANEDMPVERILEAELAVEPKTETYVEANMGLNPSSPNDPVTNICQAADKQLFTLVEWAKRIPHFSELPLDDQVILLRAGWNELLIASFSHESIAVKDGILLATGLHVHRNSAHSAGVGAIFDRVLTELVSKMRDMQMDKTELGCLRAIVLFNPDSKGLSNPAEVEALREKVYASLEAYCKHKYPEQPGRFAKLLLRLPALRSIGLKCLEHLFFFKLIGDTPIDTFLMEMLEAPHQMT
The data set is described as follows: mammalian one-hybrid reporter in MCF-7 cells ([…]). The data set is classed as cell-based.

For data set [2], the target named is T1, RXRα. Kind of data set: mammalian one-hybrid reporter in MCF-7 cells, antagonism of CD3254 (N-6 at […]). It counts as cell-based.
Data set [3] has as its target T2, RXRα (Homo sapiens, UniProt P19793, W305A).
T2 construct: gene RXRA; RXRα-LBD
T2 sequence (P19793 223-462 W305A): T1 sequence (P19793 223-462 R316E limits assumed) with W83A, E94R
The data set is described as follows: SPR (BIAcore T200). It counts as binding. (In general: In SPR one partner is held on a chip, and binding of the other changes the refractive index at the surface.)

Data set [4] addresses T3, RXRα (Homo sapiens, UniProt P19793).
T3 construct: gene RXRA; His-tagged human RXRα-LBD (223–462)
T3 sequence (P19793 223-462): T1 sequence (P19793 223-462 R316E limits assumed) with E94R
Kind of data set: SPR (BIAcore T200); also [3H]9-cis-RA competition (IC50 […]), fluorescence binding, TR-FRET coactivator assay (IC50 […]).

Data set [5] concerns the molecule itself. The data set is described as follows: native gel or EMSA; RXRα-LBD protein (2 mg/mL) incubated with DMSO, 10 μmol/L 9-cis-RA, 25 or 50 μmol/L N-6 for 3 h; 8% nondenaturing PAGE, Coomassie staining.

This note sets out measurements from paper PMC4537469 (Protein & Cell, 2015).

Positions count from the first letter of the chain named.

In the case of `Cc1cc2c(cc1-c1cc(/C=C/C(=O)O)ccc1O)C(C)(C)CCC2(C)C` [CD3254], the “mammalian one-hybrid reporter in MCF-7 cells (10^-7 mol/L)” value on RXRα [1] was “CD3254 was able to stimulate the transactivation of the mutant”.

In general, Kd refers to the constant that tells how readily two partners part at equilibrium. Higher therefore signals weaker binding. Take `C/C(=N/O)c1sc(-n2nc(-c3ccccc3)cc2-c2ccccc2)nc1C` [N-6, (NZ)-N-[1-[2-(3,5-diphenylpyrazol-1-yl)-4-methyl-1,3-thiazol-5-yl]ethylidene]droxylamine]: the “mammalian one-hybrid reporter in MCF-7 cells, antagonism of CD3254 (N-6 at 10 μm)” value on RXRα [2] is reported as “CD3254-induced transactivation of RXRα-LBD/R316E was potently inhibited by N-6”. The Kd at RXRα [3] came to 1000 µM; at RXRα [4], 15.7 µM.

B1: His-tagged human RXRα-LBD (223–462) (domain or fragment, UniProt P19793 223-462, looked up)
chain: T1 sequence (P19793 223-462 R316E limits assumed) with E94R
Broadly, the stoichiometry N is a count of units in the complex or per binding partner. In the case of B1, the “stoichiometry N” value in data set [5] is 2.
